Inconclusive results and toxic doses are left out. How the source made its calls: active means survival T/C of 150% or more; inactive means T/C below 125% in these data.
Test system: CD2F1 mice, L1210 leukemia ip, survival T/C
Assay: NCI In Vivo Anticancer Drug Screen. Data for tumor model L1210 Leukemia (intraperitoneal) in CD2F1 (CDF1) mice
Conditions: endpoint: mean survival time, higher = longer survival
Method in brief: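 Tumor-bearing mice (transplanted tumor) were split into treated and vehicle control groups, and the measured endpoint of each treated group was divided by that of its vehicle controls.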

[1] = dose: 100.0 mg/kg/injection, schedule: Q04DX003 (ip), vehicle: saline with Tween-80
[2] = dose: 200.0 mg/kg/injection, schedule: Q04DX003 (ip), vehicle: saline with Tween-80
[3] = dose: 400.0 mg/kg/injection, schedule: Q04DX003 (ip), vehicle: saline with Tween-80
[4] = dose: 100.0 mg/kg/injection, schedule: Q01DX001 (ip), vehicle: saline with Tween-80
[5] = dose: 200.0 mg/kg/injection, schedule: Q01DX001 (ip), vehicle: saline with Tween-80
[6] = dose: 400.0 mg/kg/injection, schedule: Q01DX001 (ip), vehicle: saline with Tween-80
[7] = dose: 100.0 mg/kg/injection, schedule: Q04DX003 (ip), vehicle: Klucel (hydroxypropylcellulose) (HPC)
[8] = dose: 200.0 mg/kg/injection, schedule: Q04DX003 (ip), vehicle: Klucel (hydroxypropylcellulose) (HPC)
[9] = dose: 400.0 mg/kg/injection, schedule: Q04DX003 (ip), vehicle: Klucel (hydroxypropylcellulose) (HPC)
[10] = dose: 100.0 mg/kg/injection, schedule: Q01DX009 (ip), vehicle: saline with Tween-80
[11] = dose: 200.0 mg/kg/injection, schedule: Q01DX009 (ip), vehicle: saline with Tween-80
[12] = dose: 400.0 mg/kg/injection, schedule: Q01DX009 (ip), vehicle: saline with Tween-80
[13] = dose: 3.13 mg/kg/injection, schedule: Q01DX009 (ip), vehicle: other
[14] = dose: 6.25 mg/kg/injection, schedule: Q01DX009 (ip), vehicle: other
[15] = dose: 12.5 mg/kg/injection, schedule: Q01DX009 (ip), vehicle: other
[16] = dose: 25.0 mg/kg/injection, schedule: Q01DX009 (ip), vehicle: other
[17] = dose: 50.0 mg/kg/injection, schedule: Q01DX009 (ip), vehicle: other
[18] = dose: 100.0 mg/kg/injection, schedule: Q01DX009 (ip), vehicle: other
[19] = dose: 50.0 mg/kg/injection, schedule: Q01DX009 (ip), vehicle: saline with Tween-80
[20] = dose: 12.5 mg/kg/injection, schedule: Q01DX005 (ip), vehicle: water
[21] = dose: 25.0 mg/kg/injection, schedule: Q01DX005 (ip), vehicle: water
[22] = dose: 50.0 mg/kg/injection, schedule: Q01DX005 (ip), vehicle: water
[23] = dose: 100.0 mg/kg/injection, schedule: Q01DX005 (ip), vehicle: water

Measured: T/C

CCOc1ccc(N2C(=O)CC(Sc3ccccc3N)C2=O)cc1 (stereo not drawn)
inactive: dose: 100.0 mg/kg/injection, schedule: Q01DX009 (ip), vehicle: acetone 93 % of control | dose: 200.0 mg/kg/injection, schedule: Q01DX009 (ip), vehicle: acetone 104 % of control | dose: 400.0 mg/kg/injection, schedule: Q01DX009 (ip), vehicle: acetone 112 % of control

ClCc1c2ccccc2cc2ccccc12
inactive: dose: 25.0 mg/kg/injection, schedule: Q04DX002 (ip), vehicle: saline with Tween-80 104 % of control

Nc1cccc(-c2nc3ncnc(N)c3[nH]2)c1
inactive: [1] 94 % of control | [2] 94 % of control | [3] 93 % of control

COc1ccc2c(c1)CCN=C2CCN1C(=O)CCC1=O
inactive: dose: 100.0 mg/kg/injection, schedule: Q04DX003 (ip), vehicle: saline 101 % of control | dose: 200.0 mg/kg/injection, schedule: Q04DX003 (ip), vehicle: saline 98 % of control

CNC(=O)Oc1cccc(NC(=O)OCCCCl)c1
inactive: [4] 100 % of control | [5] 105 % of control | [6] 105 % of control

c1ccc(/C(=N\Nc2nc3ccccc3s2)c2ccncc2)cc1
inactive: [7] 92 % of control | [8] 89 % of control | [9] 92 % of control

O=C1CCCCCC1c1ccccc1 (stereo not drawn)
inactive: [10] 102 % of control | [11] 102 % of control | [12] 98 % of control

CCOC(=O)c1nc2cc(C)c(C)cc2[nH]c1=O
inactive: [10] 95 % of control | [11] 89 % of control | [12] 100 % of control

Cc1c2ccccc2c(C)c2c1ccc1ccccc12
inactive: dose: 25.0 mg/kg/injection, schedule: Q01DX009 (ip), vehicle: saline with Tween-80 106 % of control | [1] 106 % of control | dose: 125.0 mg/kg/injection, schedule: Q04DX003 (ip), vehicle: Klucel (hydroxypropylcellulose) (HPC) 121 % of control

O=C(CBr)N1c2ccccc2Sc2ccc(C(F)(F)F)cc21
inactive: dose: 1.56 mg/kg/injection, schedule: Q01DX009 (ip), vehicle: other 100 % of control | [13] 97 % of control | [14] 102 % of control | [15] 96 % of control | [16] 102 % of control

CCN(C(=O)CCl)c1ccccc1C
inactive: [1] 92 % of control | [2] 89 % of control

CCOC(=O)c1cc(=O)cc(C(=O)OCC)o1
inactive: [4] 100 % of control | [5] 100 % of control | [6] 100 % of control

CC(=O)Nc1cc(/C=C/c2ccccc2)ccc1S(=O)(=O)c1ccc(/C=C/c2ccccc2)cc1NC(C)=O
inactive: [10] 93 % of control | [11] 96 % of control | [12] 88 % of control

CCCCCCCCCCCCCCOS(=O)(=O)O
inactive: dose: 37.5 mg/kg/injection, schedule: Q01DX009 (ip), vehicle: saline 93 % of control | dose: 75.0 mg/kg/injection, schedule: Q01DX009 (ip), vehicle: saline 93 % of control

Nc1nc2c(nc(Br)n2C2OC(CO)C(O)C2O)c(=O)[nH]1 (stereo not drawn)
inactive: [1] 98 % of control | [2] 102 % of control | [3] 94 % of control

c1ccc(Sc2cccc3ccccc23)cc1
inactive: [1] 102 % of control | [2] 93 % of control | [3] 91 % of control

OC1COC(C(F)(F)F)(C(F)(F)F)C1 (stereo not drawn)
inactive: [1] 94 % of control | [2] 93 % of control | [3] 96 % of control

COc1cccc(C(=O)c2ccncc2C(=O)O)c1OC
inactive: [15] 110 % of control | [16] 100 % of control | [17] 93 % of control | [18] 96 % of control | dose: 200.0 mg/kg/injection, schedule: Q01DX009 (ip), vehicle: other 96 % of control

CN(C)N=Nc1c(F)c(F)c(C(N)=O)c(F)c1F
inactive: [13] 115 % of control | [14] 120 % of control | [17] 96 % of control | [18] 105 % of control

Cc1cc(Cl)ccc1NC(=O)Nc1ccccc1C(N)=O
inactive: [19] 95 % of control | [10] 95 % of control | [11] 91 % of control

CC(C)=NNc1nc2c(N)ncnc2n1C1OC(CO)C(O)C1O (stereo not drawn)
inactive: dose: 12.5 mg/kg/injection, schedule: Q01DX005 (ip), vehicle: distilled water + Tween-80 97 % of control | [20] 96 % of control | dose: 25.0 mg/kg/injection, schedule: Q01DX005 (ip), vehicle: distilled water + Tween-80 97 % of control | [21] 94 % of control | dose: 50.0 mg/kg/injection, schedule: Q01DX005 (ip), vehicle: distilled water + Tween-80 97 % of control | [22] 99 % of control | dose: 100.0 mg/kg/injection, schedule: Q01DX005 (ip), vehicle: distilled water + Tween-80 97 % of control | [23] 99 % of control | dose: 200.0 mg/kg/injection, schedule: Q01DX005 (ip), vehicle: distilled water + Tween-80 100 % of control | dose: 200.0 mg/kg/injection, schedule: Q01DX005 (ip), vehicle: water 97 % of control

OCCN(c1ccccc1)C1CCCCC1
inactive: dose: 50.0 mg/kg/injection, schedule: Q01DX009 (ip), vehicle: Klucel (hydroxypropylcellulose) (HPC) 113 % of control | dose: 100.0 mg/kg/injection, schedule: Q01DX009 (ip), vehicle: Klucel (hydroxypropylcellulose) (HPC) 102 % of control | dose: 200.0 mg/kg/injection, schedule: Q01DX009 (ip), vehicle: Klucel (hydroxypropylcellulose) (HPC) 106 % of control

Cc1ccccc1CS
inactive: [10] 93 % of control | [1] 103 % of control | [11] 94 % of control | [2] 100 % of control | [3] 104 % of control

CC(=O)NC(Cc1ccc(N(CCCl)CCCl)cc1)C(=O)O (stereo not drawn)
inactive: dose: 3.12 mg/kg/injection, schedule: Q01DX009 (ip), vehicle: saline 97 % of control | dose: 6.25 mg/kg/injection, schedule: Q01DX009 (ip), vehicle: saline 105 % of control | dose: 12.5 mg/kg/injection, schedule: Q01DX009 (ip), vehicle: saline 118 % of control

CN(N=Nc1ccc(C(N)=O)cc1)C(C)(C)C
inactive: dose: 18.75 mg/kg/injection, schedule: Q01DX009 (ip), vehicle: Klucel (hydroxypropylcellulose) (HPC) 97 % of control | dose: 37.5 mg/kg/injection, schedule: Q01DX009 (ip), vehicle: Klucel (hydroxypropylcellulose) (HPC) 101 % of control | dose: 75.0 mg/kg/injection, schedule: Q01DX009 (ip), vehicle: Klucel (hydroxypropylcellulose) (HPC) 100 % of control | dose: 150.0 mg/kg/injection, schedule: Q01DX009 (ip), vehicle: Klucel (hydroxypropylcellulose) (HPC) 106 % of control | dose: 300.0 mg/kg/injection, schedule: Q01DX009 (ip), vehicle: Klucel (hydroxypropylcellulose) (HPC) 119 % of control

Cn1ncc2c(N)nc(-c3ccccn3)nc21
inactive: [20] 97 % of control | [21] 94 % of control | [22] 91 % of control | [23] 94 % of control

Oc1ccccc1/C=N/c1nc(-c2ccccc2)cs1.[Co].[O-]c1ccccc1/C=N/c1nc(-c2ccccc2)cs1
inactive: [5] 86 % of control | [6] 89 % of control

S=c1[nH]nc(Nc2ccccc2Cl)s1
inactive: [7] 95 % of control | [8] 95 % of control | [9] 95 % of control

O=C1CCC(Cl)S(=O)(=O)c2ccccc21 (stereo not drawn)
inactive: [4] 97 % of control | [5] 105 % of control | [6] 94 % of control

CCC(C)(O)Cc1cnccn1 (stereo not drawn)
inactive: dose: 100.0 mg/kg/injection, schedule: Q01DX009 (ip), vehicle: saline 108 % of control | dose: 200.0 mg/kg/injection, schedule: Q01DX009 (ip), vehicle: saline 97 % of control | dose: 400.0 mg/kg/injection, schedule: Q01DX009 (ip), vehicle: saline 96 % of control

CC(=O)Nc1c(N=Cc2ccc([N+](=O)[O-])cc2)cc2c3c(cccc13)CC2
inactive: dose: 50.0 mg/kg/injection, schedule: Q04DX003 (ip), vehicle: Klucel (hydroxypropylcellulose) (HPC) 91 % of control | [7] 96 % of control | [8] 94 % of control

CCCCCCC#CC(O)CC (stereo not drawn)
inactive: [19] 97 % of control | [10] 105 % of control

N#CSCCOCCSC#N
inactive: dose: 2.5 mg/kg/injection, schedule: Q04DX003 (ip), vehicle: saline with Tween-80 100 % of control | dose: 5.0 mg/kg/injection, schedule: Q04DX003 (ip), vehicle: saline with Tween-80 96 % of control

Reference: PubChem BioAssay AID256 (DTP/NCI, 2004)
